Data from patent publication US20200255838A1, “Selenium Cancer Therapy” (University of Massachusetts, priority 2017, published 2020).

Experiments:
Assay type in all cases: cell-based
U251 cells = experiment: Selenite toxicity / growth in KO cells
Protocol: FIGS. 2A-D provide evidence that SEPHS2 plays a detoxifying role in U251 GBM cell line. (A) Knockdown of either SEPHS2 or SEPSECS can block selenoprotein expression. (B) However, only SEPHS2 KO has significant toxicity. (C) Model for ‘pushing’ toxicity in which if SEPHS2 plays a detoxifying role, its KO should synergize with increased selenited input. (D) Synergy is indeed seen with 12 uM selenite treatment in conjunction with SEPHS2 KO. Growth is normalized to the already lower growth rate of the SEPHS2 KO cells, thus the bars in asterisks indicate (statistically significant) synergy.
We had classified SEPHS2 as a putative detoxifier as its substrate, selenide, is the most toxic form of selenium^12. The notion of SEPHS2 as a detoxifier has not 1 0 previously been explored, and SEPHS2 is simply known for its enzymatic role (which cannot be replaced by its isoform, SEPHS1^13) as an intermediate step in producing selenocysteine for selenocysteinyl-tRNA production. The selenocysteine producing pathway is a simple and linear pathway starting from dietary selenite—or selenite or other inorganic forms which can be converted to selenite, selenite being the most common form^14,15. Selenite is imported and converted through in an unclear manner to form selenide, which is then metabolized by SEPHS2 to form selenophosphate, accompanied by ATP hydrolysis. […]

GPX4 and SEPHS2 = experiment: Selenoprotein expression after selenite supplementation of media; settings: selenite supplemented to media
[1] = system: MDAMB468 and MDAMB231 cell lines; experiment: Hydrogen selenide gas toxicity assay; settings: gas from sodium selenide in 10% hydrochloric acid, 96-well plate
Protocol: We developed a novel gas toxicity assay in which hydrogen selenide was produced in one well of a 96-well plate and the toxic effects were measured in an adjacent well. As described, SEPHS2 KO or control KO was achieved via pLENTICRISPR lentiviral transduction, and then cells were subjected to hydrogen selenide gas toxicity. Hydrogen selenide gas was formed by dissolving sodium selenide in an acidic (10% Hydrochloric Acid) solution in the central wells of a 96-well culture plate. SEPHS2 KO and CTRL cells (for MDAMB468 and MDAMB231 cell lines) were pre-seeded at various distances from the source of hydrogen gas toxicity (distances were equal under both conditions). The viability of each set of cells was averaged and relative viability of the SEPHS2 KO cells relative to control KO cells for each cell line are shown in FIG. 8.

Structure (SMILES) | Growth with selenite in conjunction with SEPHS2 KO (U251 cells; 12 uM selenite, U251, growth normalized to SEPHS2 KO cells) | Toxicity of high-dose selenite in SLC7A11 KO cells (U251 cells; 12 μM selenite, U251 cells, both guides against SLC7A11) | Expression of selenoproteins GPX4 and SEPHS2 (GPX4 and SEPHS2) | Viability of SEPHS2 KO cells relative to control KO cells under hydrogen selenide gas [1]
O=[Se](O)O [selenite] | Synergy | complete rescue | increased expression | 
[SeH2] [hydrogen selenide gas, hydrogen selenide] |  |  |  | hypersensitive
